According to US10640534B2 (Agios Pharmaceuticals, Inc., priority 2012, dated 2020):

Test system: U87MG cells
Assay: Cellular assay, inhibition of 2-HG production in U87MG cells
Format: cell-based
Conditions: Homo sapiens, U-87 MG, 48 h
Protocol: Cells (HT1080 or U87MG) are grown in T125 flasks in DMEM containing 10% FBS, 1× penicillin/streptomycin and 500 ug/mL G418 (present in U87MG cells only). They are harvested by trypsin and seeded into 96 well white bottom plates at a density of 5000 cell/well in 100 ul/well in DMEM with 10% FBS. […] Cells are incubated overnight at 37° C. in 5% CO2. The next day test compounds are made up at 2× the final concentration and 100 ul are added to each cell well. The final concentration of DMSO is 0.2% and the DMSO control wells are plated in row G. The plates are then placed in the incubator for 48 hours. […] The cell plate is placed back in the incubator for another 24 hours. At 72 hours post compound addition, 10 mL/plate of Promega Cell Titer Glo reagent is thawed and mixed. The cell plate is removed from the incubator and allowed to equilibrate to room temperature. Then 100 ul of Promega Cell Titer Glo reagent is added to each well of media. The cell plate is then placed on an orbital shaker for 10 minutes and then allowed to sit at room temperature for 20 minutes. The plate is then read for luminescence with an integration time of 500 ms.

IC50 | Compound
< 100 nM | N#Cc1ccnc(N2C(=O)CC[C@H]2C(=O)N(c2cccc(F)c2)[C@H](C(=O)NC2CC(F)(F)C2)c2ccccc2F)c1 [Compound 149, (S)-1-(4-Cyanopyridin-2-yl)-N—((S)-2-((3,3-difluorocyclobutyl)amino)-1-(2-fluorophenyl)-2-oxoethyl)-N-(3-fluorophenyl)-5-oxopyrrolidine-2-carboxamide]
< 100 nM | N#Cc1ccnc(N2C(=O)CC[C@H]2C(=O)N(c2cc(F)cc(F)c2)C(C(=O)NC2CC(F)(F)C2)c2cccc(Cl)c2Cl)c1 (stereo partly drawn) [Compound 195, (2S)-1-(4-Cyanopyridin-2-yl)-N-(1-(2,3-dichlorophenyl)-2-(3,3-difluoro-cyclobutylamino)-2-oxoethyl)-N-(3,5-difluorophenyl)-5-oxopyrrolidine-2-carboxamide]
< 100 nM | N#Cc1ccnc(N2C(=O)[C@@H](O)C[C@H]2C(=O)N(c2cc(F)cc(F)c2)[C@H](C(=O)NC2CCC(F)(F)CC2)c2ccccc2Cl)c1 [Compound 174, (2S,4S)—N—((S)-1-(2-Chlorophenyl)-2-((4,4-difluorocyclohexyl)amino)-2-oxoethyl)-1-(4-cyanopyridin-2-yl)-N-(3,5-difluorophenyl)-4-hydroxy-5-oxopyrrolidine-2-carboxamide]
< 100 nM | O=C(NC1CC(F)(F)C1)[C@H](c1ccccc1Cl)N(C(=O)[C@@H]1CCC(=O)N1c1ccc(F)cn1)c1cccc(F)c1 [Compound 29]
< 100 nM | N#Cc1ccnc(N2C(=O)CC[C@H]2C(=O)N(c2cncc(F)c2)[C@H](C(=O)NC2CC(F)(F)C2)c2ccccc2)c1 [Compound 147, (S)-1-(4-Cyanopyridin-2-yl)-N—((S)-2-((3,3-difluorocyclobutyl)amino)-2-oxo-1-phenylethyl)-N-(5-fluoropyridin-3-yl)-5-oxopyrrolidine-2-carboxamide]
< 100 nM | Cn1ccc2cc(N(C(=O)[C@@H]3CCC(=O)N3c3cc(C#N)ccn3)[C@H](C(=O)NC3CC(F)(F)C3)c3ccccc3Cl)ccc21 [Compound 209, (S)—N—((S)-1-(2-Chlorophenyl)-2-((3,3-difluorocyclobutyl)amino)-2-oxoethyl)-1-(4-cyanopyridin-2-yl)-N-(1-methyl-1H-indol-5-yl)-5-oxopyrrolidine-2-carboxamide]
< 100 nM | N#Cc1ccnc(N2C(=O)CN(C3CC3)C[C@H]2C(=O)N(c2cc(F)cc(F)c2)[C@H](C(=O)NC2CC(F)(F)C2)c2ccccc2Cl)c1 [Compound 106, (S)—N—((S)-1-(2-chlorophenyl)-2-((3,3-difluorocyclobutyl)amino)-2-oxoethyl)-1-(4-cyanopyridin-2-yl)-4-cyclopropyl-N-(3,5-difluorophenyl)-6-oxopiperazine-2-carboxamide]
< 100 nM | CS(=O)(=O)c1cc(F)cc(N(C(=O)[C@@H]2CCC(=O)N2c2nccc(C#N)n2)C(C(=O)NC2CCC(F)(F)CC2)c2ccccc2Cl)c1 (stereo partly drawn) [Compound 108, (2S)—N-(1-(2-Chlorophenyl)-2-((4,4-difluorocyclohexyl)amino)-2-oxoethyl)-1-(4-cyanopyrimidin-2-yl)-N-(3-fluoro-5-(methylsulfonyl)phenyl)-5-oxopyrrolidine-2-carboxamide]
< 100 nM | N#Cc1ccnc(N2C(=O)CC[C@H]2C(=O)N(c2ccc3[nH]ncc3c2)[C@H](C(=O)NC2CCC(F)(F)CC2)c2ccccc2Cl)c1 [Compound 203, (S)—N—((S)-1-(2-Chlorophenyl)-2-((4,4-difluorocyclohexyl)amino)-2-oxoethyl)-1-(4-cyanopyridin-2-yl)-N-(1H-indazol-5-yl)-5-oxopyrrolidine-2-carboxamide]
< 100 nM | CS(=O)(=O)c1cccc(N(C(=O)[C@@H]2CCC(=O)N2c2cc(C#N)ccn2)C(C(=O)NC2CC(F)(F)C2)c2ccccc2Cl)c1 (stereo partly drawn) [Compound 96, (2S)—N-(1-(2-Chlorophenyl)-2-((3,3-difluorocyclobutyl)amino)-2-oxoethyl)-1-(4-cyanopyridin-2-yl)-N-(3-(methylsulfonyl)phenyl)-5-oxopyrrolidine-2-carboxamide]
< 100 nM | N#Cc1cc(F)cc(N(C(=O)[C@@H]2CCC(=O)N2c2cc(C#N)ccn2)[C@H](C(=O)NC2CC(F)(F)C2)c2ccccc2)c1 [Compound 211, (S)—N-(3-Cyano-5-fluorophenyl)-1-(4-cyanopyridin-2-yl)-N—((S)-2-(3,3-difluorocyclobutyl-amino)-2-oxo-1-phenylethyl)-5-oxopyrrolidine-2-carboxamide]
< 100 nM | CN(C)S(=O)(=O)c1cccc(N(C(=O)[C@@H]2CCC(=O)N2c2cc(C#N)ccn2)[C@H](C(=O)NC2CC(F)(F)C2)c2ccccc2Cl)c1 [Compound 156, (S)—N—((S)-1-(2-Chlorophenyl)-2-(3,3-difluorocyclobutylamino)-2-oxoethyl)-1-(4-cyanopyridin-2-yl)-N-(3-(N,N-dimethylsulfamoyl)phenyl)-5-oxopyrrolidine-2-carboxamide]
< 100 nM | CC(C)(O)c1cc(F)cc(N(C(=O)[C@@H]2COC(=O)N2c2cc(C#N)ccn2)C(C(=O)NC2CC(F)(F)C2)c2ccccc2Cl)c1 (stereo partly drawn) [Compound 145, (4S)—N-(1-(2-Chlorophenyl)-2-(3,3-difluorocyclobutylamino)-2-oxoethyl)-3-(4-cyanopyridin-2-yl)-N-(3-fluoro-5-(2-hydroxypropan-2-yl)phenyl)-2-oxooxazolidine-4-carboxamide]
< 100 nM | N#Cc1ccnc(N2C(=O)[C@H](O)C[C@H]2C(=O)N(c2cccc(F)c2)[C@H](C(=O)NC2CCC(F)(F)CC2)c2ccccc2Cl)c1 [Compound 121, (2S,4R)—N—((S)-1-(2-Chlorophenyl)-2-((4,4-difluorocyclohexyl)amino)-2-oxoethyl)-1-(4-cyanopyridin-2-yl)-N-(3-fluorophenyl)-4-hydroxy-5-oxopyrrolidine-2-carboxamide]
< 100 nM | CC(C)(O)c1cccc(N(C(=O)[C@@H]2CCC(=O)N2c2cc(C#N)ccn2)[C@H](C(=O)NC2CC(F)(F)C2)c2ccccc2Cl)c1 [Compound 179, (S)—N—((S)-1-(2C)-2-((3,3-difluorocyclobutyl)amino)-2-oxoethyl)-1-(4-cyanopyridin-2-yl)-N-(3-(2-hydroxypropan-2-yl)phenyl)-5-oxopyrrolidine-2-carboxamide]
< 100 nM | N#Cc1ccnc(N2C(=O)[C@H](O)C[C@H]2C(=O)N(c2cc(F)cc(F)c2)[C@H](C(=O)NC2CCC(F)(F)CC2)c2ccccc2Cl)c1 [Compound 125, (2S,4R)—N—((S)-1-(2-Chlorophenyl)-2-(4,4-difluorocyclohexylamino)-2-oxoethyl)-1-(4-cyanopyridin-2-yl)-N-(3,5-difluorophenyl)-4-hydroxy-5-oxopyrrolidine-2-carboxamide]
100 to 500 nM | O=C(NC1CC(F)(F)C1)C(c1ccccc1Cl)N(C(=O)[C@@H]1CCC(=O)N1c1ccccc1)c1cccc(F)c1 (stereo partly drawn) [Compound 23]
< 100 nM | N#Cc1cc(C#N)cc(N(C(=O)[C@@H]2CCC(=O)N2c2cc(C#N)ccn2)C(C(=O)NC2CC(F)(F)C2)c2ccccc2Cl)c1 (stereo partly drawn) [Compound 191, (2S)—N-(1-(2-Chlorophenyl)-2-((3,3-difluorocyclobutyl)amino)-2-oxoethyl)-1-(4-cyanopyridin-2-yl)-N-(3,5-dicyanophenyl)-5-oxopyrrolidine-2-carboxamide]
< 100 nM | N#Cc1ccnc(N2C(=O)CC[C@H]2C(=O)N(c2cc(F)cc(F)c2)[C@H](C(=O)NC2CC(F)(F)C2)c2ccccc2)c1 [Compound 210, (S)-1-(4-Cyanopyridin-2-yl)-N—((S)-2-(3,3-difluorocyclobutylamino)-2-oxo-1-phenylethyl)-N-(3,5-difluorophenyl)-5-oxopyrrolidine-2-carboxamide]
< 100 nM | O=C(NC1CCC(F)(F)CC1)[C@H](c1ccccc1Cl)N(C(=O)[C@@H]1CCC(=O)N1c1cnccn1)c1cccc(F)c1 [Compound 58, (S)—N—((S)-1-(2-Chlorophenyl)-2-(4,4-difluorocyclohexylamino)-2-oxoethyl)-N-(3-fluorophenyl)-5-oxo-1-(pyrazin-2-yl)pyrrolidine-2-carboxamide]
< 100 nM | N#Cc1ccnc(N2C(=O)CC[C@H]2C(=O)N(c2ccc3[nH]ccc3c2)[C@H](C(=O)NC2CC(F)(F)C2)c2ccccc2Cl)c1 [Compound 206, (S)—N—((S)-1-(2-Chlorophenyl)-2-((3,3-difluorocyclobutyl)amino)-2-oxoethyl)-1-(4-cyanopyridin-2-yl)-N-(1H-indol-5-yl)-5-oxopyrrolidine-2-carboxamide]
< 100 nM | N#Cc1ccnc(N2C(=O)OCC[C@H]2C(=O)N(c2cncc(F)c2)[C@H](C(=O)NC2CC(F)(F)C2)c2ccccc2Cl)c1 [Compound 143, (S)—N—((S)-1-(2-Chlorophenyl)-2-((3,3-difluorocyclobutyl)amino)-2-oxoethyl)-3-(4-cyanopyridin-2-yl)-N-(5-fluoropyridin-3-yl)-2-oxo-1,3-oxazinane-4-carboxamide]
< 100 nM | N#Cc1cccc(N(C(=O)[C@@H]2CCC(=O)N2c2nccc(C#N)n2)[C@H](C(=O)NC2CC(F)(F)C2)c2ccccc2Cl)c1 [Compound 167, (S)—N—((S)-1-(2-Chlorophenyl)-2-((3,3-difluorocyclobutyl)amino)-2-oxoethyl)-N-(3-cyanophenyl)-1-(4-cyanopyrimidin-2-yl)-5-oxopyrrolidine-2-carboxamide]
< 100 nM | N#Cc1cc(F)cc(N(C(=O)[C@@H]2CCC(=O)N2c2cc(C#N)ccn2)[C@H](C(=O)NC2CCC(F)(F)CC2)c2ccccc2Cl)c1 [Compound 184, (S)—N—((S)-1-(2-Chlorophenyl)-2-(4,4-difluorocyclohexylamino)-2-oxoethyl)-N-(3-cyano-5-fluorophenyl)-1-(4-cyanopyridin-2-yl)-5-oxopyrrolidine-2-carboxamide]
